For one series, the target named is T1, hIDO2 (Homo sapiens, UniProt Q6ZQW0).
T1 construct: purchased Vinci-Biochem
T1 sequence (Q6ZQW0 1-407): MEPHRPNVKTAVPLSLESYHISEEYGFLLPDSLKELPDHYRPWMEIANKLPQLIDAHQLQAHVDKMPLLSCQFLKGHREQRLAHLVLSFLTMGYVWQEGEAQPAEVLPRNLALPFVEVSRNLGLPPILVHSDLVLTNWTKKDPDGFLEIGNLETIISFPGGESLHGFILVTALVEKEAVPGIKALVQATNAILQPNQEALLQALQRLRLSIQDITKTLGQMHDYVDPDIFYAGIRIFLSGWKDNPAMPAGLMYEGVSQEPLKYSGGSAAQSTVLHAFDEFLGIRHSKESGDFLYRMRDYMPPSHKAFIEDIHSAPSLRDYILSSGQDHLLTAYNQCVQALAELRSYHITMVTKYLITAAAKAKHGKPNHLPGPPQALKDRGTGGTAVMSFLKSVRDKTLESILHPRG
Put plainly: hIDO2 inhibitory potency evaluation (fluorescence assay). Format: biochemical. The settings on record: for inhibition at 100 µM: 100 µM compound, n.a. = not active, read-out: IDO2 % of Inhibition @ 100 µM. The method, then: (§1) Additionally, to determine IDO1 selectivity, all final compounds were assayed for their inhibitory potencies towards hIDO2 and hTDO. For this purpose, two new protocols were developed based on the published fluorescence assay for hIDO1 [25]. Sodium ascorbate, methylene blue, and bovine catalase were used in the same concentrations as for hIDO1. 50 mM phosphate buffers with pH values of 7.5 and 7.0 were used for hIDO2 and hTDO, respectively, as has been already mentioned before. First, the activities of hIDO2 and hTDO were determined at four different concentrations. […] Additionally, the effect of DMSO concentration on enzyme activity was investigated. […] The optimal hIDO2 and hTDO assay concentrations of the substrate L-Trp were determined to be 4 mM and 500 μM, respectively.
Activity of the compounds on hIDO2 was determined according to the previously reported fluorescence protocol for hIDO1 [25] and reported absorbance protocols for hIDO2 [30, 36] with several modifications. Recombinant hIDO2 was purchased from Vinci-Biochem (Vinci-Biochem, Srl, Vinci, Italy), bovine catalase was purchased from Sigma-Aldrich (Sigma-Aldrich, St. Louis, MO, USA). Prior to the measurement of activity for compounds, the enzyme activity was determined and optimal assay enzyme concentration was selected. The amounts of reagents needed to perform the assay were optimized. Briefly, the reagents needed were dissolved in 50 mM potassium phosphate buffer (pH 7.5, 0.01%, v/v Tween 20), the reaction was performed in black 384-well microplates. After the addition of 1 μL of 100 mM sodium ascorbate neutralized with an equimolar amount of 1M NaOH, 1 μL of 100 μM methylene blue, 1 μL of 1 mg/mL bovine catalase, 0.5 μL of DMSO (negative control) or solution of a compound in DMSO, 5 μL of […] hIDO2 and 1.5 μL of 26.7 mM L-Trp were added and the microplate was incubated for 60 min at 37 °C. The reaction was quenched with the addition of 10 μL of 400 mM piperidine solution in MilliQ water and the formation of the examined fluorophore began following incubation at 65 °C for 20 min. The production of NFK-derived fluorophore (λEX = 400 nm, λEM = 500 nm) was measured using a microplate reader (Synergy H4; BioTek Instruments, Inc., Winooski, VT, USA) after 60 min post-incubation at room temperature. In the preliminary testing compounds were tested at 100 μM with activities determined as residual activities—RA, which were calculated to% of inhibition, presented in Table 1 and Table 2. (% of inhibition = 100% − RA). All determinations were carried out in duplicates.

Another series addresses IDO1 (Homo sapiens, UniProt P14902). Put plainly: hIDO1 inhibitory potency evaluation (fluorescence assay, NFK-derived fluorophore). The settings on record: for inhibition at 100 µM: 100 µM compound, n.a. = not active, read-out: IDO1 % of Inhibition @ 100 µM; for IC50: recombinant hIDO1, mean ± SD of at least two independent determinations, read-out: IDO1 IC50. The series is classed as biochemical. Further details: gene encoding human IDO1 residues 6-403 His-tagged at the N-terminus; His tag (N); made in house; host or cells: Escherichia coli NiCo21.

Another series deals with T2, hTDO (Homo sapiens, UniProt P48775).
T2 construct: purchased Vinci-Biochem
In words: hTDO inhibitory potency evaluation (fluorescence assay). Format: biochemical. The settings on record: for inhibition at 100 µM: 100 µM compound, n.a. = not active, read-out: TDO % of Inhibition @ 100 µM. The method, then:
as §1
The activity of the compounds on hTDO was determined according to the previously reported fluorescence protocol for hIDO1 [25] and reported absorbance protocols for hTDO [30] with several modifications. Recombinant hTDO was purchased from Vinci-Biochem (Vinci-Biochem, Vinci, Italy), bovine catalase was purchased from Sigma-Aldrich (Sigma-Aldrich, St. Louis, MO, USA). Prior to the measurement of activity for compounds, the enzyme activity was determined, and optimal assay enzyme concentration was selected. The amounts of reagents needed to perform the assay were optimized. Briefly, the reagents needed were dissolved in 50 mM potassium phosphate buffer (pH 7.0, 0.01%, v/v Tween 20), the reaction was performed in black 384-well microplates. After the addition of 1 μL of 100 mM sodium ascorbate neutralized with equimolar amount of 1 M NaOH, 1 μL of 100 μM methylene blue, 1 μL of 1 mg/mL bovine catalase, 0.5 μL of DMSO (negative control) or solution of a compound, 5 μL of 300 nM hTDO and 1.5 μL of 3.3 mM L-Trp were added and the microplate was incubated for 60 min at 37 °C. The reaction was quenched with the addition of 10 μL of 400 mM piperidine solution in MilliQ water and the formation of the examined fluorophore began following incubation at 65 °C for 20 min. The production of NFK-derived fluorophore (λEX = 400 nm, λEM = 500 nm) was measured using a microplate reader (Synergy H4; BioTek Instruments, Inc., Winooski, VT, USA) after 60 min post-incubation at room temperature. In the preliminary testing compounds were tested at 100 μM with activities determined as residual activities—RA, which were calculated to% of inhibition, presented in Table 1 and Table 2 (% of inhibition = 100% − RA). All determinations were carried out in duplicates.

The next series concerns Hep G2 cell line. In words: Cytotoxicity, MTS cell proliferation assay. Format: cell-based. The settings on record: Hep G2 cells, 10 μM, 24 h. On the procedure: All active compounds were additionally evaluated on a cellular level, starting with the determination of cytotoxicity on Hep G2 cell line using the MTS assay (Figure 3), where inner salt of [3-(4,5-dimethylthiazol-2-yl)-5-(3-carboxymethoxyphenyl)-2-(4-sulfophenyl)-2H-tetrazolium is converted to formazan product, its quantity is directly proportional to the number of living cells. Since the majority of compounds were only partially soluble in a cell medium at concentrations above 100 μM, their effect on cell viability was measured at 50 μM, 10 μM, and 1 μM. […] Taken together, the results obtained from cellular tests reminded us of the necessity to consider the physicochemical properties of compounds even at the early stages of design.
Cytotoxicity of the compounds was determined on HepG2 cell line using the MTS cell proliferation assay (CellTiter 96 AQueous One Solution Cell Proliferation Assay, Promega, Madison, WI, USA). The cells were seeded in 96-well plates (3 × 10^4 cells/well) and maintained in Dulbecco’s Modified Eagle’s Medium, supplemented with 10% fetal bovine serum (both from Thermo Fisher Scientific, Waltham, MA, USA) and 100 µg/mL gentamicin (Sigma-Aldrich, St. Louis, MO, USA). Following overnight incubation in a humidified chamber at 37 °C and 5% CO2 cells were treated with the compounds of interest at final concentrations of 1 µM, 10 µM, 50 µM, 100 µM, 150 µM, and 200 µM. After 24h incubation under the same conditions, 100 µL of the medium from each well were collected and mixed with 10 µL of MTS solution. Following 3h incubation, the absorbance (λABS = 490 nm) was measured using a microplate reader (Synergy H4; BioTek Instruments, Inc., Winooski, VT, USA). The results are expressed as means of triplicates ± standard deviation of three independent experiments.
For orientation: Formazan colour is commonly taken as a measure of viable cells.

This is an account of results in PMC8001472, “Novel Selective IDO1 Inhibitors with Isoxazolo[5,4-d]pyrimidin-4(5H)-one Scaffold” (Pharmaceuticals, 2021).

One may read the inhibition as the share of the control response that was lost under treatment. In general, melting point refers to the temperature, or range, at which the solid turns liquid. By IC50 is commonly meant the concentration needed to halve the response being measured.

IDO1, sequence (P14902 6-403): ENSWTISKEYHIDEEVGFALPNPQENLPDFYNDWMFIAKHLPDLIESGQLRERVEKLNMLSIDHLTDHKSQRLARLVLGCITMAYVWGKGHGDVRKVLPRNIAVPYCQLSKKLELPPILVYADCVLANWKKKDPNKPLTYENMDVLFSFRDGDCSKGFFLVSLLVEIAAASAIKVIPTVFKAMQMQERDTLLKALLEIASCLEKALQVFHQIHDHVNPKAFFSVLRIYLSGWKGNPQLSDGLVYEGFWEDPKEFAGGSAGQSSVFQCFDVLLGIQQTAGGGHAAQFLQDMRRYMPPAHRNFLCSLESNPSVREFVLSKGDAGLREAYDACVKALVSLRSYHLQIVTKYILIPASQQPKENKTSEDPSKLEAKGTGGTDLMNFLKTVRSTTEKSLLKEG
T2 sequence (P48775 whole entry): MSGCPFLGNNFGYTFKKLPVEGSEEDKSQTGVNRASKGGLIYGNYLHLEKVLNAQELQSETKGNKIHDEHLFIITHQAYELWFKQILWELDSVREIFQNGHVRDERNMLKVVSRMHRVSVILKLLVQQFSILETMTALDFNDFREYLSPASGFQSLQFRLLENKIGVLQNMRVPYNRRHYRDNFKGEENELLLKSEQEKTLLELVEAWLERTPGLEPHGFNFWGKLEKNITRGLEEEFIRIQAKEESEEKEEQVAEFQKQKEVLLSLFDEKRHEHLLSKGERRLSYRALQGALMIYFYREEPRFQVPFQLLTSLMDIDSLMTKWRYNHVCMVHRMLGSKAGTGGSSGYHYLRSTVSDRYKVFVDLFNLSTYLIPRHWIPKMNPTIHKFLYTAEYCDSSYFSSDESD

On to `COC(=O)c1ccccc1NC(=O)Cn1cnc2onc(-c3ccc(F)cc3)c2c1=O` [Compound 18], for which the melting point lay in the range of 212 to 214 °C. Moreover, the inhibition at 100 µM on hIDO2 was found to be 15 ± 1%. Also, the inhibition at 100 µM on IDO1 turned out to be 32 ± 4%.
On to `N#Cc1ccc(NC(=O)Cn2cnc3onc(-c4ccc(F)cc4)c3c2=O)cc1` [Compound 27], for which the melting point is greater than 250 °C. The inhibition at 100 µM at hTDO was 17 ± 2%. Moreover, at IDO1, the “hIDO1 inhibition (in words)” value was “inactive” and the inhibition at 100 µM is 11 ± 4%.
As for `O=C(Cn1cnc2onc(-c3ccsc3)c2c1=O)Nc1ccc([N+](=O)[O-])cc1` [Compound 53], the melting point was 231 to 233 °C. The inhibition at 100 µM on hIDO2 was 21 ± 6%. Moreover, the IC50 on IDO1 was found to be 40 µM.
On to `O=C(Cn1cnc2onc(-c3ccc(F)cc3)c2c1=O)Nc1ccc(-c2nn[nH]n2)cc1` [Compound 30], for which the inhibition at 100 µM at hTDO was found to be 17 ± 2%. Moreover, the “hIDO1 inhibition (in words)” value at IDO1 was “inactive”.
The compound `COC(=O)c1ccc(NC(=O)Cn2cnc3onc(-c4ccccc4)c3c2=O)cc1` [Compound 39] came in with a melting point of 200 to 202 °C. For the same compound, the inhibition at 100 µM at hIDO2 stood at 11 ± 7%. Also, at IDO1, the “hIDO1 inhibition (in words)” value is given as “low micromolar range” and the IC50 amounted to 22 µM. In the series on Hep G2 cell line, the “effect on cell viability” value is “significantly impacted cell viability”.
Compound `O=C(Cn1cnc2onc(-c3ccc(F)cc3)c2c1=O)Nc1ccccc1` [Compound 16] came in with a melting point of 203 to 205 °C. Also, the inhibition at 100 µM on hIDO2 amounted to 28 ± 9%. Besides, on IDO1, the “hIDO1 inhibition (in words)” value is recorded as “only weak inhibition” and the inhibition at 100 µM is 15 ± 4%.
With `O=C(Cn1cnc2onc(-c3ccc(F)cc3)c2c1=O)Nc1ccc2ccccc2c1` [Compound 36], the melting point was in the range of 180 to 184 °C. The inhibition at 100 µM at hIDO2 was 13 ± 2%. Also, the half-maximal inhibitory concentration (IC50) on IDO1 was found to be 46 µM.
In the case of `O=C(Cn1cnc2onc(-c3ccc(F)cc3)c2c1=O)Nc1ccc([N+](=O)[O-])cc1` [Compound 25], the melting point lay in the range of 200 to 203 °C. Besides, on hIDO2, the inhibition at 100 µM turned out to be 28%. Besides, the inhibition at 100 µM at hTDO is 24 ± 7%. For the same compound, the half-maximal inhibitory concentration (IC50) at IDO1 worked out at 98 µM.
Consider `O=C(Cn1cnc2onc(-c3ccc(F)cc3)c2c1=O)Nc1ccc(-c2ncco2)cc1` [Compound 29], for which the melting point lay in the range of 237 to 239 °C. The inhibition at 100 µM at hTDO stood at 29 ± 3%. For the same compound, the IC50 on IDO1 amounted to 30 µM.
Regarding `O=C(Cn1cnc2onc(-c3ccccc3)c2c1=O)Nc1ccc([N+](=O)[O-])cc1` [Compound 40], the melting point was 197 to 199 °C. Further, the inhibition at 100 µM at hIDO2 stood at 16 ± 5%.
Take `O=C(Cn1cnc2onc(-c3ccc(F)c(Br)c3)c2c1=O)Nc1ccc([N+](=O)[O-])cc1` [Compound 49]: the melting point was 226 to 228 °C. Also, the inhibition at 100 µM at hTDO is 10 ± 2%. Besides, the IC50 on IDO1 is 96 µM. For the same compound, the “effect on cell viability” value in the series on Hep G2 cell line was “significantly impacted cell viability”.
For `NS(=O)(=O)NCCNc1nonc1C(=NO)Nc1ccc(F)c(Br)c1` [epacadostat, reference compound], the IC50 on hIDO2 (positive control, assay validation, read-out: IDO2 IC50) came out at 0.58 µM; at hTDO, 9.62 µM.
Turning to `CN(C)c1ccc(NC(=O)Cn2cnc3onc(-c4ccc(F)cc4)c3c2=O)cc1` [Compound 28], on hTDO, the inhibition at 100 µM was 18 ± 4%. Moreover, on IDO1, the “hIDO1 inhibition (in words)” value was “weak inhibition” and the inhibition at 100 µM came out at 31 ± 3%.
`O=C(Cn1cnc2onc(-c3ccc(F)c(F)c3)c2c1=O)Nc1ccc([N+](=O)[O-])cc1` [Compound 48]: the inhibition at 100 µM at hTDO is 10 ± 6%. Also, on IDO1, the concentration for half-maximal inhibition (IC50) worked out at 75 µM.
With `O=C(Cn1cnc2onc(-c3ccc(F)cc3)c2c1=O)Nc1cccc([N+](=O)[O-])c1` [Compound 24], the melting point is 232 to 235 °C. The inhibition at 100 µM on hIDO2 came out at 39 ± 5%. The inhibition at 100 µM on hTDO stood at 25 ± 8%. Moreover, on IDO1, the inhibition at 100 µM was found to be 30 ± 2%.
For `O=C(Cn1cnc2onc(-c3ccccc3)c2c1=O)N1CCCc2ccccc21` [Compound 38], the inhibition at 100 µM at hIDO2 came out at 16 ± 4%.
